Laboratory results from US5059624A, “Guanidine derivatives having hypotensive activity, composition containing them and process for obtaining them” (Consiglio Nazionale Delle Ricerche, priority 1988, dated 1991).
Read-outs that look alike come from different tables or passages of the source. Where a SMILES comes first, the peptide text is derived from it.

Tests used:
[1] = tested on: male Wistar rats; assay: Comparison with known active ingredients in male Wistar rats under sodium thiopental anaesthesia, rapid i.v. or 5 min infusion; format: in vivo, rat (male Wistar)
Experimental: In order to compare the activity of the compounds of the present invention to that of the products of the prior art, various doses of known anti-hypertensive, hypotensive and vasoactive drugs were administered to male Wistar rats under general anaesthesia by sodium thiopental (50 mg/kg, i.p.). The administration was effected through "rapid" i.v. route or through intravenous infusion (inf.) for a time of 5 minutes.
The dose of each product is referred to the base, and the volumes injected were of 100 mcl in case of i.v. administration and […] total (0.9% sodium chloride solution) in case of infusion. The various parameters were evaluated in the same way as in the preceding experiments.

[2] = tested on: male Wistar rats
[3] = Lethal dose 50 (LD50) through i.p. route in mice; settings: mouse, in vivo, ip
Experimental: The lethal dose 50 (LD50) of guanido-I through i.p. route in mice turned out to be 57 mg±3.6 per kg.
The lethal dose 50 (LD50) of the diguanido-II through i.p. route in mice, turned out to be 7 mg±0.6 per kg.

[4] = 0.75 mcg/kg, i.v., maximum response
[5] = 5 mcg/kg, i.v., maximum response
[6] = 5 mg/kg, inf., maximum response
[7] = 2.5 mg/kg, i.v., maximum response
[8] = 1 mcg/kg, i.v., maximum response
[9] = 2 mg/kg, i.v., maximum response

With `NC(N)=NCCC[C@H](NC(=O)[C@H](Cc1ccccc1)NC(=O)[C@@H]1CCCN1C(=O)[C@H](CO)NC(=O)[C@H](Cc1ccccc1)NC(=O)CNC(=O)[C@@H]1CCCN1C(=O)[C@@H]1CCCN1C(=O)[C@@H](N)CCCN=C(N)N)C(=O)O` [Bradykinin] (H-RPPGFSPFR-OH) the “Δ AP DIASTOLIC” value [1, 4] was -18 ± 4 mmHg, the “Δ AP SYSTOLIC” value [1, 4] was -18 ± 3 mmHg and the “Δ HR” value [1, 4] was -11 ± 2 beats/min. The Δ dp/dt [1, 4] was -830 ± 124 mmHg/sec.

With `N=C(N)NCCN1CCCCCCC1` [Guanetidine] the “Δ HR” value ([1]; rat, in vivo) was -18 ± 6 beats/min and the Δ dp/dt ([1]; rat, in vivo) was -863 ± 160.

With `NCCc1c[nH]c2ccc(O)cc12` [5-hydroxytriptamine] the “Δ AP DIASTOLIC” value [1, 5] was -39 ± 2 mmHg, the “Δ AP SYSTOLIC” value [1, 5] was -37 ± 3 mmHg and the “Δ HR” value [1, 5] was -12 ± 3 beats/min. It also gave a Δ dp/dt [1, 5] of -1410 ± 167 mmHg/sec.

With `Clc1cccc(Cl)c1N=C1NCCN1` [Clonidine] the “general effects on the various haemodynamic parameters (in words)” value (shortened to “general effects”) ([1]; rat, in vivo) was “general "depressive" effects”, the “Δ AP DIASTOLIC” value ([1]; rat, in vivo) was -9 ± 1 mmHg and the “Δ AP SYSTOLIC” value ([1]; rat, in vivo) was -15 ± 4 mmHg. For the same molecule, the “Δ HR” value ([1]; rat, in vivo) was -40 ± 8 beats/min and the Δ dp/dt ([1]; rat, in vivo) was -871 ± 74.

In the case of `COc1ccc(C=CC(=O)NCCCCNC(=N)NCC=C(C)C)cc1OC` [guanido-I], the “Δ AP DIAST” value ([2]; 50 μg/kg i.v.) is reported as -5 ± 1 mmHg, the “Δ AP SYST” value ([2]; 50 μg/kg i.v.) is reported as -4 ± 2 mmHg and the “Δ HR” value ([2]; 50 μg/kg i.v.) is reported as “+8 ± 3 beats/min”. The “Δ RF” value ([2]; 50 μg/kg i.v.) was “+6 ± 2 acts/min”, the Δ dp/dt ([2]; 50 μg/kg i.v.) was “+52 ± 8 mmHg/sec” and the “Δ AP DIAST” value ([2]; 100 μg/kg i.v.) was -6 ± 2 mmHg. For the same molecule, the “Δ AP SYST” value ([2]; 100 μg/kg i.v.) was -6 ± 2 mmHg, the “Δ HR” value ([2]; 100 μg/kg i.v.) was “+10 ± 1 beats/min” and the “Δ RF” value ([2]; 100 μg/kg i.v.) was “+9 ± 4 acts/min”. For the same molecule, the Δ dp/dt ([2]; 100 μg/kg i.v.) was “+141 ± 25 mmHg/sec”, the “Δ AP DIAST” value ([2]; 200 μg/kg i.v.) was -10 ± 2 mmHg and the “Δ AP SYST” value ([2]; 200 μg/kg i.v.) was -11 ± 3 mmHg. The “Δ HR” value ([2]; 200 μg/kg i.v.) was “+13 ± 2 beats/min”, the “Δ RF” value ([2]; 200 μg/kg i.v.) was “+12 ± 2 acts/min” and the Δ dp/dt ([2]; 200 μg/kg i.v.) was “+1284 ± 78 mmHg/sec”. For the same molecule, the “Δ AP DIAST” value ([2]; 400 μg/kg i.v.) was -14 ± 3 mmHg, the “Δ AP SYST” value ([2]; 400 μg/kg i.v.) was -15 ± 4 mmHg and the “Δ HR” value ([2]; 400 μg/kg i.v.) was “+14 ± 5 beats/min”. The “Δ RF” value ([2]; 400 μg/kg i.v.) was “+16 ± 3 acts/min”, the Δ dp/dt ([2]; 400 μg/kg i.v.) was “+1712 ± 107 mmHg/sec” and the “Δ AP DIAST” value ([2]; 800 μg/kg i.v.) was -15 ± 3 mmHg. The “Δ AP SYST” value ([2]; 800 μg/kg i.v.) was -17 ± 3 mmHg, the “Δ HR” value ([2]; 800 μg/kg i.v.) was “+18 ± 4 beats/min” and the “Δ RF” value ([2]; 800 μg/kg i.v.) was “+25 ± 6 acts/min”. For the same molecule, the Δ dp/dt ([2]; 800 μg/kg i.v.) was “+2140 ± 263 mmHg/sec”, the “Δ AP DIAST” value ([2]; 1600 μg/kg i.v.) was -18 ± 4 mmHg and the “Δ AP SYST” value ([2]; 1600 μg/kg i.v.) was -21 ± 6 mmHg. The “Δ HR” value ([2]; 1600 μg/kg i.v.) was “+22 ± 3 beats/min”, the “Δ RF” value ([2]; 1600 μg/kg i.v.) was “+23 ± 9 acts/min” and the Δ dp/dt ([2]; 1600 μg/kg i.v.) was “+2996 ± 104 mmHg/sec”. For the same molecule, the “Δ AP DIAST” value ([2]; 3200 μg/kg i.v.) was -29 ± 4 mmHg, the “Δ AP SYST” value ([2]; 3200 μg/kg i.v.) was -25 ± 5 mmHg and the “Δ HR” value ([2]; 3200 μg/kg i.v.) was “+25 ± 8 beats/min”. For the same molecule, the “Δ RF” value ([2]; 3200 μg/kg i.v.) was “+26 ± 7 acts/min”, the Δ dp/dt ([2]; 3200 μg/kg i.v.) was “+2984 ± 362 mmHg/sec” and the “Δ AP DIAST” value ([2]; 6400 μg/kg i.v.) was -29 ± 2 mmHg. For the same molecule, the “Δ AP SYST” value ([2]; 6400 μg/kg i.v.) was -34 ± 4 mmHg, the “Δ HR” value ([2]; 6400 μg/kg i.v.) was “+20 ± 4 beats/min” and the “Δ RF” value ([2]; 6400 μg/kg i.v.) was “+29 ± 5 acts/min”. The Δ dp/dt ([2]; 6400 μg/kg i.v.) was “+3074 ± 441 mmHg/sec”, the “effect on AP (in words)” value ([2]; i.v., 50-6400 μg/kg, rat) was “lowers the value of AP according to a linear dependence on the dose” and the “effect on HR, dp/dt and RF (in words)” value ([2]; i.v., 50-6400 μg/kg, rat) was “causes an increase in the values of HR, dp/dt and RF”. For the same molecule, the “cardiovascular and respiratory effects (in words)” value ([2]; i.v., rat) was “giving hypotensive responses while increasing heart rate and inotropism as well as respiratory rate”, the “changes in the tidal volume (TV) (in words)” value ([2]; i.v., rat) was “a linear increase has been observed with the doses” and the “correlation with peripheral adrenergic receptors (α1-α2; β1-β2) (in words)” value ([2]; i.v., rat) was “do not seem to be correlated to significative actions of the active ingredient at the level of the peripheral adrenergic receptors”. The LD50 [3] was 57 mg/kg.

In the case of `COC(=O)[C@H]1[C@H]2C[C@@H]3c4[nH]c5cc(OC)ccc5c4CCN3C[C@H]2C[C@@H](OC(=O)c2cc(OC)c(OC)c(OC)c2)[C@@H]1OC` [Reserpine], the “Δ AP DIASTOLIC” value [1, 6] is reported as -24 ± 5 mmHg, the “Δ AP SYSTOLIC” value [1, 6] is reported as -31 ± 6 mmHg and the “Δ HR” value [1, 6] is reported as -47 ± 9 beats/min. For the same molecule, the Δ dp/dt [1, 6] was -1580 ± 134 mmHg/sec and the “general effects” value ([1]; rat) was “general "depressive" effects”.

In the case of `C[N+](C)(C)CCCCCC[N+](C)(C)C` [Hexameton], the “Δ AP DIASTOLIC” value [1, 7] is reported as -34 ± 2 mmHg, the “Δ AP SYSTOLIC” value [1, 7] is reported as -44 ± 2 mmHg and the “Δ HR” value [1, 7] is reported as -48 ± 9 beats/min. For the same molecule, the Δ dp/dt [1, 7] was -4040 ± 812 mmHg/sec.

With `NC[C@H](O)c1ccc(O)c(O)c1` [Noradrenaline] the “Δ AP DIASTOLIC” value [1, 8] was “+31 ± 2 mmHg”, the “Δ AP SYSTOLIC” value [1, 8] was “+44 ± 3 mmHg” and the “Δ HR” value [1, 8] was “+14 ± 4 beats/min”. For the same molecule, the Δ dp/dt [1, 8] was “+4314 ± 415 mmHg/sec”.

For `COc1ccc(Cc2nccc3cc(OC)c(OC)cc23)cc1OC` [Papaverine], the “Δ AP DIASTOLIC” value [1, 9] was -18 ± 3 mmHg, the “Δ AP SYSTOLIC” value [1, 9] was -23 ± 3 mmHg and the “Δ HR” value [1, 9] was -21 ± 5 beats/min. For the same molecule, the Δ dp/dt [1, 9] was -604 ± 102 mmHg/sec and the “general effects” value ([1]; rat) was “general "depressive" effects”.

For `NCCc1c[nH]cn1` [Histamine], the “Δ AP DIASTOLIC” value [1, 5] was -28 ± 3 mmHg, the “Δ AP SYSTOLIC” value [1, 5] was -30 ± 3 mmHg and the “Δ HR” value [1, 5] was -7 ± 1 beats/min. For the same molecule, the Δ dp/dt [1, 5] was -1314 ± 180 mmHg/sec.
